Experiments:
Assay type in all cases: in vivo
cocklebur = assay: Herbicidal activity test against upland field weeds (foliar treatment test); parameters: key to Foliar treatment herbicidal activity, Cocklebur: 0 (no control); 100 (complete control); details: 50 g ai/ha, scale 0-100; for pest or weed control at 50 g/ha: Xanthium strumarium
How it was run: (§1)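 Weeds were raised from seed or rootstocks in horticultural soil in a greenhouse (30±5° C., 14/10 h light/dark), then foliage was hand-sprayed with compound at 50 or 75 g a.i./ha in 50% acetone with 0.1% Tween-20. Control was scored visually 0–100 against untreated plants after 14 days, or 21 if needed.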

barnyard grass = assay: Herbicidal activity test against upland field weeds (soil treatment test); parameters: key to Soil treatment herbicidal activity, barnyard grass: 0 (no control); 100 (complete control); details: 50 g ai/ha, scale 0 (no control) to 100 (complete control); for pest or weed control at 50 g/ha: Echinochloa crus-galli
How it was run: (§2)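 Pre-emergence test: seeds or rootstocks were sown in fertilized sandy loam, and the next day the soil surface was sprayed with compound at 50 or 75 g a.i./ha in 50% acetone/0.1% Tween-20. Plants were grown in a greenhouse (30±5 °C, 14/10 h light/dark), then visually scored 0–100 against untreated at 14 d (21 d if needed).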

wheat = assay: Phytotoxicity test for upland field crops (foliar treatment test); parameters: key: 0 (no harm); 9 (complete withered)
How it was run: (§3)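 Application rate ranged 19˜300 g a.i./ha, delivered as a foliar spray (100 ml/m^2) in 33% acetone with 0.1% Tween-20 to crops raised at 30±5 °C under 14/10 h light/dark. Symptoms were assessed 7 and 14 days post-treatment, extending to 21 days where necessary, using a 0–9 injury grade relative to untreated control.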

rice = assay: as above; parameters: key: 0 (no harm); 9 (complete withered)
How it was run: as §3

soybean = assay: as above; parameters: key: 0 (no harm); 9 (complete withered)
How it was run: as §3

corn = assay: as above; parameters: key: 0 (no harm); 9 (complete withered)
How it was run: as §3

cotton = assay: as above; parameters: key: 0 (no harm); 9 (complete withered)
How it was run: as §3

velvetleaf = assay: Herbicidal activity test against upland field weeds (foliar treatment test); parameters: key to Foliar treatment herbicidal activity, velvet leaf: 0 (no control); 100 (complete control); details: 50 g ai/ha; for pest or weed control at 50 g/ha: Abutilon theophrasti, scale 0-100, read-out: Foliar treatment herbicidal activity, velvet leaf
How it was run: as §1

crabgrass = assay: as above; parameters: key to Foliar treatment herbicidal activity, Crabgrass: 0 (no control); 100 (complete control); details: 50 g ai/ha, scale 0-100; for pest or weed control at 50 g/ha: Digitaria sanguinalis
How it was run: as §1

quack grass = assay: Herbicidal activity test against upland field weeds (soil treatment test); parameters: key to Soil treatment herbicidal activity, quack grass: 0 (no control); 100 (complete control); details: 50 g ai/ha, scale 0 (no control) to 100 (complete control)
How it was run: as §2

bindweed [1] = assay: as above; parameters: key to Soil treatment herbicidal activity, Bindweed: 0 (no control); 100 (complete control); details: 50 g ai/ha, scale 0 (no control) to 100 (complete control)
How it was run: as §2

indian jointvetch = assay: Herbicidal activity test against upland field weeds (foliar treatment test); details: 50 g ai/ha, scale 0-100
How it was run: as §1

bindweed [2] = assay: as above; parameters: key to Foliar treatment herbicidal activity, Bindweed: 0 (no control); 100 (complete control); details: 50 g ai/ha, scale 0-100
How it was run: as §1

[3] = 50 g ai/ha, Wheat (7 days after treatment)
[4] = 50 g ai/ha, Wheat (14 days after treatment)
[5] = 100 g ai/ha, Wheat (7 days after treatment)
[6] = 100 g ai/ha, Wheat (14 days after treatment)
[7] = 50 g ai/ha, Rice (7 days after treatment)
[8] = 50 g ai/ha, Rice (14 days after treatment)
[9] = 100 g ai/ha, Rice (7 days after treatment)
[10] = 100 g ai/ha, Rice (14 days after treatment)
[11] = 50 g ai/ha, Soybean (7 days after treatment)
[12] = 50 g ai/ha, Soybean (14 days after treatment)
[13] = 100 g ai/ha, Soybean (7 days after treatment)
[14] = 100 g ai/ha, Soybean (14 days after treatment)
[15] = 50 g ai/ha, Corn (7 days after treatment)
[16] = 50 g ai/ha, Corn (14 days after treatment)
[17] = 100 g ai/ha, Corn (7 days after treatment)
[18] = 100 g ai/ha, Corn (14 days after treatment)
[19] = 50 g ai/ha, Cotton (7 days after treatment)
[20] = 50 g ai/ha, Cotton (14 days after treatment)
[21] = 100 g ai/ha, Cotton (7 days after treatment)
[22] = 100 g ai/ha, Cotton (14 days after treatment)

SMILES	Foliar treatment phytotoxicity, Wheat (wheat; [3])	Foliar treatment phytotoxicity, Wheat (wheat; [4])	Foliar treatment phytotoxicity, Wheat (wheat; [5])	Foliar treatment phytotoxicity, Wheat (wheat; [6])	Foliar treatment phytotoxicity, Rice (rice; [7])	Foliar treatment phytotoxicity, Rice (rice; [8])	Foliar treatment phytotoxicity, Rice (rice; [9])	Foliar treatment phytotoxicity, Rice (rice; [10])	Foliar treatment phytotoxicity, Soybean (soybean; [11])	Foliar treatment phytotoxicity, Soybean (soybean; [12])	Foliar treatment phytotoxicity, Soybean (soybean; [13])	Foliar treatment phytotoxicity, Soybean (soybean; [14])	Foliar treatment phytotoxicity, Corn (corn; [15])	Foliar treatment phytotoxicity, Corn (corn; [16])	Foliar treatment phytotoxicity, Corn (corn; [17])	Foliar treatment phytotoxicity, Corn (corn; [18])	Foliar treatment phytotoxicity, Cotton (cotton; [19])	pest or weed control at 50 g/ha (velvetleaf) [%]	Soil treatment herbicidal activity, quack grass (quack grass)	pest or weed control at 50 g/ha (indian jointvetch) [%]	further results
Cn1nnnc1COc1nc(C(F)(F)F)ccc1C(=O)Nc1nnnn1C [Compound No. 1-1, N-(1-methyl-1H-tetrazol-5-yl)-2-((1-methyl-1H-tetrazol-5-yl)methoxy)-6-(trifluoromethyl)nicotinamide]	1	1	3	2	4	8	6	9	7	0	8	9	2	2	4	4	3	98	0	30	Foliar treatment herbicidal activity, Cocklebur (cocklebur): 100; pest or weed control at 50 g/ha (barnyard grass): 95%; Foliar treatment phytotoxicity, Cotton (cotton; [20]): 0; Foliar treatment phytotoxicity, Cotton (cotton; [21]): 3; Foliar treatment phytotoxicity, Cotton (cotton; [22]): 7; Foliar treatment herbicidal activity, Crabgrass (crabgrass): 100; Soil treatment herbicidal activity, Bindweed (bindweed [1]): 0
Cn1nnnc1COc1nc(C(F)(F)F)ccc1C(=S)Nc1nnnn1C [Compound No. 1-43, N-(1-methyl-1H-tetrazol-5-yl)-2-((1-methyl-1H-tetrazol-5-yl)methoxy)-6-(trifluoromethyl)pyridin-3-carbothioamide]																		90	0	30	pest or weed control at 50 g/ha (cocklebur): 90%; Soil treatment herbicidal activity, barnyard grass (barnyard grass): 0; pest or weed control at 50 g/ha (crabgrass): 95%; pest or weed control at 50 g/ha (bindweed [2]): 70%; Soil treatment herbicidal activity, Bindweed (bindweed [1]): 0
Cn1cnc(COCc2nc(C(F)F)ccc2C(=O)Nc2nnnn2C)n1 [Compound No. 2-85]	0	0	2	0	7	7	8	1	4	6	6	7	0	0	0	0	7				Foliar treatment herbicidal activity, Cocklebur (cocklebur): 97; Soil treatment herbicidal activity, barnyard grass (barnyard grass): 0; Foliar treatment phytotoxicity, Cotton (cotton; [20]): 7; Foliar treatment phytotoxicity, Cotton (cotton; [21]): 8; Foliar treatment phytotoxicity, Cotton (cotton; [22]): 9; Foliar treatment herbicidal activity, velvet leaf (velvetleaf; scale 0-100): 100; Foliar treatment herbicidal activity, Crabgrass (crabgrass): 60; Foliar treatment herbicidal activity, Bindweed (bindweed [2]): 99; Soil treatment herbicidal activity, Bindweed (bindweed [1]): 35; Foliar treatment herbicidal activity, Indian jointvetch (indian jointvetch): 97
Cn1nnc(CSCc2nc(C(F)(F)F)ccc2C(=O)Nc2nnnn2C)n1 [Compound No. 2-102, N-(1-methyl-1H-tetrazol-5-yl)-2-((((2-methyl-2H-tetrazol-5-yl)methyl)thio)methyl)-6-(trifluoromethyl)nicotinamide]	0	0	0	1	3	3	4	4	0	0	0	0	0	0	0	0	0	80	0	98	Foliar treatment herbicidal activity, Cocklebur (cocklebur): 100; pest or weed control at 50 g/ha (barnyard grass): 98%; Foliar treatment phytotoxicity, Cotton (cotton; [20]): 0; Foliar treatment phytotoxicity, Cotton (cotton; [21]): 0; Foliar treatment phytotoxicity, Cotton (cotton; [22]): 0; Foliar treatment herbicidal activity, Crabgrass (crabgrass): 100; Foliar treatment herbicidal activity, Bindweed (bindweed [2]): 100
COc1nc(COCc2nc(C(F)(F)F)ccc2C(=O)Nc2nnnn2C)nn1C [Compound No. 2-129, 2-(((5-methoxy-1-methyl-1H-1,2,4-triazol-3-yl)methoxy)methyl)-N-(1-methyl-1H-tetrazol-5-yl)-6-(trifluoromethyl)nicotinamide]	1	1	2	2									0	0	0	0		70	0	60	pest or weed control at 50 g/ha (cocklebur): 70%; Soil treatment herbicidal activity, barnyard grass (barnyard grass): 0; pest or weed control at 50 g/ha (crabgrass): 70%; pest or weed control at 50 g/ha (bindweed [2]): 40%
Cn1nc(COCc2nc(C(F)(F)F)ccc2C(=O)Nc2nnnn2C)nc1Cl [Compound No. 2-135, 2-(((5-chloro-1-methyl-1H-1,2,4-triazol-3-yl)methoxy)methyl)-N-(1-methyl-1H-tetrazol-5-yl)-6-(trifluoromethyl)nicotinamide]	0	0	0	0	3	6	4	6	4	6	4	7	0	0	0	0	3	40	0	95	pest or weed control at 50 g/ha (cocklebur): 95%; Soil treatment herbicidal activity, barnyard grass (barnyard grass): 0; Foliar treatment phytotoxicity, Cotton (cotton; [20]): 7; Foliar treatment phytotoxicity, Cotton (cotton; [21]): 3; Foliar treatment phytotoxicity, Cotton (cotton; [22]): 7; pest or weed control at 50 g/ha (crabgrass): 70%; pest or weed control at 50 g/ha (bindweed [2]): 70%

— patent US12495798B2, “Nicotinamide compound and herbicidal composition comprising compound” (KOREA RESEARCH INSTITUTE OF CHEMICAL TECHNOLOGY, priority 2019, dated 2025)
